Measured values taken from patent US5968751A, “Method for detecting the presence of protein C antibody in a fluid sample” (The Scripps Research Institute, priority 1997, dated 1999).
Read-outs that look alike come from different tables or passages of the source. No end group written: not given here.

Experiments:
[1] = molecular target: T1, Factor Xa (Homo sapiens, UniProt P00742); assay: Factor Xa clotting activity in NHP without added APC (Factor Xa-1 Stage clotting assay); type: biochemical; details: for IC50: read-out: 50% inhibition of Factor Xa clotting activity
T1 construct: purchased Enzyme Research Laboratories, Southbend, Ind
T1 sequence (P00742 41-179 limits assumed): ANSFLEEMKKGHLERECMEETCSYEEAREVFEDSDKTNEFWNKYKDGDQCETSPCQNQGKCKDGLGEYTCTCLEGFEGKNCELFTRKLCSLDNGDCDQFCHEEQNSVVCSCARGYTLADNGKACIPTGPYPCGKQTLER
T1 sequence (P00742 235-488 limits assumed): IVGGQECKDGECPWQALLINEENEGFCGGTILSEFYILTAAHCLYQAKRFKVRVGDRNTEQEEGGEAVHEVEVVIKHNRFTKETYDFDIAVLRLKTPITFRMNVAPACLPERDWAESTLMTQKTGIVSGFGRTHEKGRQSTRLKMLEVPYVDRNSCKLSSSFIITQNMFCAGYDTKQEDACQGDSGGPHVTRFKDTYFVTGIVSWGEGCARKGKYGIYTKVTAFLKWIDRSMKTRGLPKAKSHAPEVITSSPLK
Experimental: FIG. 1 illustrates factor Xa clotting activity in the presence of PC311-325. The assay was performed as described in Example 5a6). Solid circles with solid lines depict factor Xa activity of 0.15 nM factor Xa in the presence of PC311-325 and solid triangles with dashed lines depict factor Xa activity in the presence of the control peptide.
FIG. 2 illustrates factor Xa clotting activity in the presence of PC142-155. The assay was performed as described in Example 5a6). Solid circles with solid lines depict factor Xa activity of 0.15 nM factor Xa in NHP in the presence of PC142-155 and solid triangles with dashed lines depict factor Xa activity in the presence of the scrambled peptide.
To determine the effect of the APC-inhibiting peptides, PC311-325 and PC142-155, on the amidolytic activity of Factor Xa, amidolytic assays as described for APC in Example 5a3 were performed using 0.15 nM Factor Xa in the presence of increasing amounts of peptide. Peptide PC311-325 ranged in concentration from 0 to 100 μM whereas peptide PC142-155 ranged in concentration from 0 to 50 μM.
For the assay, 100 μl of 0.15 nM factor Xa, prepared in Example 5a5) were admixed with separate aliquots of either peptide prepared in TBS-BSA at pH 7.4 containing 0.02% NaN3 and 2 mM CaCl2 to form APC-peptide admixtures. After maintenance of the admixtures for 30 minutes at 37° C., 50 μl of 2.4 mM S-2222 in the same buffer were admixed to initiate the amidolytic reaction. The hydrolysis of the substrate was measured as described before.
The Factor Xa-1 Stage assay was conducted as described in Example 5a6). In that assay, the IC50 for peptides PT557-571. PT463-478, PT473-487, PT481-495, X404-418, X415-429 and X329-344 were 50, >500, 25, >500, 50, 115, and 500, respectively.

[2] = molecular target: prothrombinase; assay: prothrombinase assay with purified proteins; type: biochemical; details: for inhibition of prothrombinase activity in the absence of Factor Va: up to 200 μM PC311-325, up to 250 μM PC142-155
Experimental: FIG. 3 illustrates prothrombinase activity in the presence of PC311-325. The assay was performed using 1 nM factor Xa, 0.4 nM factor Va, 1.2 μM prothrombin and […] factor Xa in the absence of factor Va in TBS-BSA, 2.5 mM CaCl2, pH 7.4. Unless otherwise specified all prothrombinase assays were carried out in the presence of 50 μM phospholipid vesicles. In all cases solid symbols indicate prothrombinase activity in the presence of factor Va whereas open symbols indicate prothrombinase activity in the […] of factor Va. Solid circles with solid lines indicate prothrombinase activity (with factor Va) in the presence of PC311-325, solid squares with solid lines indicate prothrombinase activity (with factor Va) in the presence of PC311-325 but in the absence of phospholipid vesicles and solid triangles with dashed lines indicate prothrombinase activity (with factor Va) in the presence of the control peptide. Open circles with solid lines denote prothrombinase activity (without factor Va) in the presence of PC311-325 and open triangles with dashed lines denote prothrombinase activity (without factor Va) in the presence of the control peptide.
FIG. 4 illustrates prothrombinase activity in the presence of PC142-155. The assay was performed using 1 nM factor Xa, 0.4 nM factor Va, 1.2 μM prothrombin and 2.5 nM factor Xa in the absence of factor Va in TSB-BSA, 2.5 mM CaCl2, 50 μM phospholipid vesicles, pH 7.4. In all cases solid symbols indicate prothrombinase activity in the […] of factor Va. Solid circles with solid lines indicate prothrombinase activity (with factor Va) in the presence of PC142-155 and solid triangles with dashed lines indicate prothrombinase activity (with factor Va) in the presence of the scrambled peptide. Open circles with solid lines denote prothrombinase activity (without factor Va) in the presence of PC142-155 and open triangles with dashed lines denote prothrombinase activity (without factor Va) in the presence of the scrambled peptide.
Factor Va was determined via its cofactor activity in the activation of prothrombin by Factor Xa. Amounts of Factor Xa (Enzyme Research Lab.), phospholipid vesicles and prothrombin (purified as described by Stenflo, J. Biol. Chem., 25:355-363, (1976) from a barium citrate plasma precipitate purified by DEAE-sephadex chromatography) present in the assay were such that the rate of prothrombin activation was linearly dependent on factor Va and constant over the time course of the experiment. The molar concentration of Factor Xa was determined by active site titration as described by Chase et al., Biochem. Biophys. Res. Commun., 29:508-514 (1967). The molecular weights and extinction coefficients (E280 nm/mg/ml) used in the calculation of protein concentrations were as follows: prothrombin, 72,000 and 1.44; APC, 62,000 and 1.45; and Factor X, 65,300 and 1.16.
In a typical experiment, Factor Va was assayed as follows. An aliquot of the solution containing Va was admixed to a solution containing prothrombin, phospholipids and calcium in individual wells of a 96-well microtiter plate. Prothrombin activation was initiated with the mixture of Factor Xa to the Va-containing wells to form a reaction admixture. Final concentrations of reagents in the reaction mixture were the following: 1.2 μM prothrombin, 1 nM Xa, 0-0.4 nM Va, 50 μM phospholipid-vesicles (phosphatidylserine 20%/phosphatidylcholine 80%; M/M), in 0.05 M Tris-HCl at pH 7.4 containing 0.1 M NaCl, 0.5% BSA and 2.0 mM CaCl2. The reaction was maintained at 22° C. At one minute time intervals from initiation of the reaction, 20 μl aliquots of the reaction admixture were withdrawn and admixed to wells of an ELISA plate containing 80 μl TBS-BSA and 10 mM EDTA at pH 8.0 resulting in the quenching of the prothrombinase reaction. […]

[3] = NHP, 0.15 nM factor Xa, no added APC

Molecule | IC50 [1, 3] [µM] | inhibition of prothrombinase activity in the absence of Factor Va [2] | inhibition of prothrombinase activity in the presence of Factor Va [2] | other results
CSCC[C@H](NC(=O)[C@H](CCCNC(=N)N)NC(=O)[C@H](CCCCN)NC(=O)[C@H](Cc1c[nH]c2ccccc12)NC(=O)[C@@H]1CCCN1C(=O)[C@H](CCCNC(=N)N)NC(=O)CN)C(=O)N[C@@H](CCC(=O)O)C(=O)N[C@@H](CCCCN)C(=O)N[C@@H](CCCCN)C(=O)N[C@@H](CCCNC(=N)N)C(=O)N[C@@H](CO)C(=O)N[C@@H](Cc1c[nH]cn1)C(=O)N[C@@H](CC(C)C)C(=O)N[C@@H](CS)C(N)=O [PC142-155, Gly-Arg-Pro-Trp-Lys-Arg-Met-Glu-Lys-Lys-Arg-Ser-His-Leu] | 10 | – | – | IC50 ([1]; clotting assays in plasma): 5 µM
KRNRTFVLNFIKIPV-NH2 [PC311-325, Lys-Arg-Asn-Arg-Thr-Phe-Val-Leu-Asn-Phe-Ile-Lys-Ile-Pro-Val] | 7 | very little if any significant inhibition | – | IC50 ([2]; presence of Factor Va, read-out: 50% inhibition of prothrombinase activity): 8 µM
MHKLREGKWRPKSR [Scrambled peptide, reference compound] | – | – | small amount of inhibition | inhibition of Factor Xa activity ([1]; 50 μM peptide, NHP): 40%; inhibition of Factor Xa activity ([1]; 50 μM peptide, NHP, listed as scrambled control peptide): 37%; inhibition of prothrombinase activity ([2]; 100 μM peptide, presence of Factor Va): 40%
VKFTIRVFNPRNLKI [Control Peptide, reference compound] | – | very little if any significant inhibition | very little if any significant inhibition | inhibition of Factor Xa activity ([1]; 100 μM peptide, NHP): 30%
